Where a name gives a salt, the structure may show the parent alone. Values belong to the molecule of their own block, whether it stands above or below them.
What was measured:
Saccharomyces cerevisiae [1] = assay: filter disc inhibition zone on Petri dishes (90 mm), Example 3; assay type: cell-based; settings: for surface of inhibition zone: 90 mm dish, after 16 h
Protocol: Saccharomyces cerevisiae (at least 10^5 cfu/ml) was distributed on Petri dishes with a diameter of 145 mm containing 30 ml Potato Dextrose Agar (PDA; Carl Roth; pH of about 6) using sterilized swabs. Filter paper discs (Whatman, Antibiotic Assay Paper, grade AA) with a diameter of 6 mm were loaded with 40 μl of a solution of 3 mM natamycin (Chinonbio, China, 95%) plus 0, 0.03, 0.09, 0.3 or 0.9 mM of sodium salts of butanoic acid (Carl Roth >99%), caprylic acid (Carl Roth, >99.5%), palmitic acid (Sigma, sodium palmitate 98.5) or stearic acid (Carl Roth, sodium stearate 88-92%). As controls, the effects of the fatty acid salts alone (without natamycin) were tested. Yeast growth was also measured after incubation on medium without natamycin and fatty acid salts.
Following the application of a filter, Petri dishes were incubated upside down for 24 h in a refrigerator at 4° C. to allow diffusion of natamycin into the agar. After 24 h the filter discs were removed from the agar and the Petri dishes were incubated upside down in a stove at 30° C. […] After 16 h incubation in the stove the size of the inhibition zone was determined using a digital caliper gauge. The data are presented as square mm and are an average of four replicas.
The experiment was performed as described in example 2, except that the diameter of the petri dishes was 90 mm. Measurement of the inhibition zone was after 16 hours.

Saccharomyces cerevisiae [2] = assay: filter disc inhibition zone on PDA Petri dishes (145 mm), Example 2; assay type: cell-based; settings: after 16 h
Protocol: Saccharomyces cerevisiae (at least 10^5 cfu/ml) was distributed on Petri dishes with a diameter of 145 mm containing 30 ml Potato Dextrose Agar (PDA; Carl Roth; pH of about 6) using sterilized swabs. […] As controls, the effects of the fatty acid salts alone (without natamycin) were tested. Yeast growth was also measured after incubation on medium without natamycin and fatty acid salts. Following the application of a filter, Petri dishes were incubated upside down for 24 h in a refrigerator at 4° C. to allow diffusion of natamycin into the agar. After 24 h the filter discs were removed from the agar and the Petri dishes were incubated upside down in a stove at 30° C. […] After 16 h incubation in the stove the size of the inhibition zone was determined using a digital caliper gauge. The data are presented as square mm and are an average of four replicas.

[3] = system: Fusarium oxysporum f. sp. cubense; assay: in vitro 96-well microtiter plate assay, visible mould development; assay type: cell-based; settings: substance alone
[4] = saturation level of natamycin in water by HPLC; assay type: physicochemical
Saccharomyces cerevisiae [5] = assay: filter disc inhibition zone on PDA Petri dishes (90 mm, 50 μL), Example 4; assay type: cell-based; settings: 3 mM natamycin alone; after 16 h
Protocol: Saccharomyces cerevisiae (at least 10^5 cfu/mL) was distributed on Petri dishes with a diameter of 90 mm containing 10 ml PDA agar (Carl Roth, pH about 6) using sterilized swabs. Filter paper discs (Whatman) with a diameter of 6 mm were loaded with 50 μL of a solution containing a concentration of 3 mM natamycin plus 0.3 mM of a mixture of oleic acid sodium salt and stearic acid sodium salt in a 50/50 ratio (this mixture will be referred to as fatty acid mix). As controls, the effect of the fatty acid mix alone (without natamycin) was tested on yeast growth. Yeast growth was also determined after incubation on medium without both natamycin and fatty acid salts. The size of the inhibition zone is a result of the natamycin and/or fatty acid salts released from the sample disc. After 16 h of incubation in the stove the size of the inhibition zone was measured using a digital caliper gauge. The data are presented as square mm and are an average of four replicas.

[6] = solubility of natamycin in aqueous composition (description); assay type: physicochemical; settings: presence of fatty acids, monoglycerides and/or derivatives; pH between 5 and 9
Botrytis cinerea = assay: rot on wounded apples inoculated with Botrytis cinerea; assay type: in vivo; settings: 3 mM natamycin; for Lesion area on apple fruits: 0 FA; for Antifungal activity (%): apple fruits
Description: Tested fruit: apples cv Maribelle from organic origin/SKAL certified. SKAL is a semi-governmental Dutch organization that controls organic production in the Netherlands. Wounds of the apples were checked at day 5 and 7. A mixture of fatty acid sodium salts containing oleic acid sodium salt and stearic acid sodium salt in a 50/50 ratio was used in this experiment and will be referred to as fatty acid mix. Used pathogen: Botrytis cinerea spore-suspension containing 10^6 spores/ml. Application: The fruit peel of the apple was damaged with a cork borer, ø 4 mm and depth ˜0.5 cm into the fruit, with 2 wounds per apple. 40 microliter of a freshly prepared spore suspension of B. cinerea was applied by pipette onto each wound. Subsequently, the spore-suspension was allowed to air-dry for 4 hours. Then, 40 microliter of a treatment as presented in the list above was applied by pipette to each wound. All fruits were kept at room temperature (20° C.). Wounds of the apples were checked after 4 and 7 days of incubation. […] Replicates: All treatments for the apple experiment were performed on six individual apples with two wounds each resulting in 12 wounds per treatment.

[7] = 0.03 mM fatty acid salt without natamycin
[8] = 0.09 mM fatty acid salt without natamycin
[9] = 0.3 mM fatty acid salt without natamycin
[10] = 0.9 mM fatty acid salt without natamycin

Compound: CCCCCCCC(=O)O [caprylic acid potassium salt, caprylic acid]
surface of inhibition zone (Saccharomyces cerevisiae [1]; 0.03 mM caprylic acid salt without natamycin): 0 square mm
surface of inhibition zone (Saccharomyces cerevisiae [1]; 0.09 mM caprylic acid salt without natamycin): 0 square mm
surface of inhibition zone (Saccharomyces cerevisiae [1]; 0.3 mM caprylic acid salt without natamycin): 0 square mm
surface of inhibition zone (Saccharomyces cerevisiae [1]; 0.9 mM caprylic acid salt without natamycin): 0 square mm

Compound: CCCCCCCC(=O)O [caprylic acid ammonium salt, caprylic acid]
effect on natamycin-inhibited yeast growth (Saccharomyces cerevisiae [1]; caprylic acid salt 0.09, 0.3 and 0.9 mM with natamycin): enhanced
inhibition of growth of yeast by the salts themselves (Saccharomyces cerevisiae [1]; without natamycin): did not inhibit

Compound: CCCCCCCCCCCCCCCC(=O)[O-].[Na+] [palmitic acid-Na, sodium palmitate]
surface of inhibition zone (Saccharomyces cerevisiae [2]; [7]): 0 square mm
surface of inhibition zone (Saccharomyces cerevisiae [2]; [8]): 0 square mm
surface of inhibition zone (Saccharomyces cerevisiae [2]; [9]): 0 square mm
surface of inhibition zone (Saccharomyces cerevisiae [2]; [10]): 0 square mm

Compound: CCCCCCCCCCCCCCCCCC(=O)[O-].[Na+] [stearic acid-Na, sodium stearate]
surface of inhibition zone (Saccharomyces cerevisiae [2]; [7]): 0 square mm
surface of inhibition zone (Saccharomyces cerevisiae [2]; [8]): 0 square mm
surface of inhibition zone (Saccharomyces cerevisiae [2]; [9]): 0 square mm
surface of inhibition zone (Saccharomyces cerevisiae [2]; [10]): 0 square mm

Compound: CCCC(=O)O [butanoic acid-Na, butanoic acid]
surface of inhibition zone (Saccharomyces cerevisiae [2]; [7]): 0 square mm
surface of inhibition zone (Saccharomyces cerevisiae [2]; [8]): 0 square mm
surface of inhibition zone (Saccharomyces cerevisiae [2]; [9]): 0 square mm
surface of inhibition zone (Saccharomyces cerevisiae [2]; [10]): 0 square mm

Compound: CCCCCCCC(=O)O [caprylic acid-Na, caprylic acid]
surface of inhibition zone (Saccharomyces cerevisiae [2]; [7]): 0 square mm
surface of inhibition zone (Saccharomyces cerevisiae [2]; [8]): 0 square mm
surface of inhibition zone (Saccharomyces cerevisiae [2]; [9]): 0 square mm
surface of inhibition zone (Saccharomyces cerevisiae [2]; [10]): 0 square mm

Dissolved natamycin in water ([4]; ratio natamycin:salts of oleic and stearic acid mix 1:0 (g:g), room temperature): 46 mg/L
level dissolved in water ([4]; without addition of fatty acids): about 46 ppm
solubility of natamycin [6]: increased
Compound: C[C@@H]1C/C=C/C=C/C=C/C=C/[C@H](O[C@@H]2O[C@H](C)[C@@H](O)[C@H](N)[C@@H]2O)C[C@@H]2O[C@](O)(C[C@@H](O)C[C@H]3O[C@@H]3/C=C/C(=O)O1)C[C@H](O)[C@H]2C(=O)O [Natamycin, natamycin]
surface of inhibition zone (Saccharomyces cerevisiae [2]; 3 mM natamycin, 0 mM fatty acid salt, 40 μl per disc): 585 square mm
sensitivity of Fusarium oxysporum [3]: > 7 µM
surface of inhibition zone (Saccharomyces cerevisiae [1]; 3 mM natamycin, 0 mM caprylic acid salt): 788 square mm
Inhibition zone (Saccharomyces cerevisiae [5]): 480 square mm
Lesion area on apple fruits (Botrytis cinerea; 5 days after inoculation): 130 mm^2
Lesion area on apple fruits (Botrytis cinerea; 7 days after inoculation): 308 mm^2
Antifungal activity (%) (Botrytis cinerea; incubation 5 days): 62%
Antifungal activity (%) (Botrytis cinerea; incubation 7 days): 50%
